Laboratory results published in patent US20240254118A1, “PRMT5 INHIBITORS AND USES THEREOF” (Gilead Sciences, Inc., priority 2022, published 2024).

How the values were obtained:
[1] = system: HCT116 MTAP-deleted cells; experiment: Cell viability assay (CellTiter-Glo, 7 days), HCT116 MTAP-deleted; conditions: Homo sapiens, HCT-116, 168 h
[2] = system: SDMA signal (PRMT5 inhibition) in HCT116 MTAP-deleted cells; experiment: Symmetric di-methyl arginine image-based high content screen assay (SDMA assay), HCT116 MTAP-deleted; type: cell-based; conditions: SDMA assay; for EC50: Homo sapiens, HCT-116, 72 h, 3 days of treatment, cell line not given, taken as HCT116 MTAP-deleted, read-out: EC50 (SDMA assay)
Procedure: Symmetric di-methyl arginine image-based high content screen assay (SDMA assay) was performed in HCT116 WT and HCT116 MTAP-deleted cell lines to measure Symmetric Di-methyl Arginine (SDMA) signal reduction after selective PRMT5 inhibition in the MTAP-deleted cells.
Briefly, the same compound plates were generated as mentioned in the previous section of Cell viability assay on Day −1.
On Day 3, the cells were fixed by adding 45 μl of 8% neutralized formalin solution to each well using EL460 liquid dispenser 5 μl cassette and the cells were incubated for 30 minutes at room temperature. The formalin solution was washed off with […] phosphate buffered saline (dPBS), the 0.1% Triton X-100 solution in dPBS was used to permeabilize the cells for 15 minutes at room temperature. The triton solution was aspirated, 50 μl of Odyssey Blocking buffer+0.05% Tween20 was added and the plate was incubated at room temperature for 30 minutes.
The blocking solution was removed, a 20 μl of SDMA antibody (Cell Signaling Technology, Cat no. 13222) diluted 1:500 in Odyssey Blocking buffer+0.05% Tween20 was added and the plate was incubated at 4° C. overnight. Next day, the primary SDME antibody solution was washed from each well three times with 0.05% Tween20 in dPBS (PBST).
A 30 μl of the secondary antibody, a Goat anti-Rabbit Alexa Fluor Plus 488 (Invitrogen, Cat no. PIA32731) was diluted 1:500 in Odyssey Blocking buffer+0.05% Tween20 and the plate was incubated for 1.5 hours in dark at room temperature. The secondary antibody solution was removed, 30 μl of 5 mg/ml DAPI solution diluted 1:2000 in dPBS was added and the plate was incubated for 30 minutes in dark at room temperature. The DAPI solution was aspirated and the wells were washed six times with dPBS.
The SDMA signal and DAPI signal per cell were counted using a Cellomics CX7 LZR instrument reading under 488 and 405 nm laser, respectively. The SDMA signal was quantified by mean average intensity per cell from Alexa Fluor Plus 488 after the cell was defined with DAPI.

[3] = taken as HCT116 WT versus MTAP-deleted
[4] = taken as HCT116 WT vs MTAP-deleted

Structure (SMILES)	CC50 [1]	EC50 [2]	EC50 selectivity (SDMA assay) [2, 3]	EC50 selectivity (SDMA assay) [2, 4]
[2H]C1([2H])C([2H])([2H])C1([2H])C(=O)N(C)N(Cc1ccc(C(F)(F)F)cn1)C(=O)c1ccc2nc(N)c3cnn(C)c3c2c1 [Example 305, 4-amino-N′-(cyclopropane-1-carbonyl-d5)-N′,1-dimethyl-N-((5-(trifluoromethyl)pyridin-2-yl)methyl)-1H-pyrazolo[4,3-c]quinoline-8-carbohydrazide]	< 100 nM	< 1 nM	75	
CN(C(=O)C1CC1)N(Cc1ccc(C(F)(F)F)cn1)C(=O)c1cc2c(cc1Cl)nc(N)c1cnn(C)c12 [Example 304, 4-amino-7-chloro-N′-(cyclopropanecarbonyl)-N′,1-dimethyl-N-((5-(trifluoromethyl)pyridin-2-yl)methyl)-1H-pyrazolo[4,3-c]quinoline-8-carbohydrazide]	< 100 nM	1 to 5 nM	15	
CCn1c(CN(C(=O)c2ccc3nc(N)c4cnn(C)c4c3c2)N2CCCC2=O)nc2ccccc21 [Example 83, 4-Amino-N-[(1-ethylbenzimidazol-2-yl)methyl]-1-methyl-N-(2-oxopyrrolidin-1-yl)pyrazolo[4,3-c]quinoline-8-carboxamide]	100 to 1000 nM	1 to 5 nM	242	
CN(C(=O)C1CCC1)N(Cc1ccc(C(F)(F)F)cn1)C(=O)c1ccc2nc(N)c3cnn(C)c3c2c1 [Example 108, 4-amino-N′-(cyclobutanecarbonyl)-N′,1-dimethyl-N-[[5-(trifluoromethyl)-2-pyridyl]methyl]pyrazolo[4,3-c]quinoline-8-carbohydrazide]	< 100 nM	< 1 nM	70	
CC(=O)N(C)N(Cc1ccc(-c2ccns2)cc1F)C(=O)c1ccc2nc(N)c3cnn(C)c3c2c1 [Example 234, N′-acetyl-4-amino-N-(2-fluoro-4-(isothiazol-5-yl)benzyl)-N′,1-dimethyl-1H-pyrazolo[4,3-c]quinoline-8-carbohydrazide]	< 100 nM	< 1 nM	39	
Cn1ncc2c(N)nc3cc(F)c(C(=O)N(Cc4ccc(C(F)(F)F)cc4F)N4CCOCC4)cc3c21 [Example 398, 4-amino-7-fluoro-N-[[2-fluoro-4-(trifluoromethyl)phenyl]methyl]-1-methyl-N-morpholino-pyrazolo[4,3-c]quinoline-8-carboxamide]	< 100 nM	1 to 5 nM		31
CN(C(=O)C12COC(C1)C2)N(Cc1ccc(C(F)(F)F)cn1)C(=O)c1ccc2nc(N)c3cnn(C)c3c2c1 [Example 186, 4-amino-N′,1-dimethyl-N′-(2-oxabicyclo[2.1.1]hexane-4-carbonyl)-N-[[5-(trifluoromethyl)-2-pyridyl]methyl]pyrazolo[4,3-c]quinoline-8-carbohydrazide]	100 to 1000 nM	1 to 5 nM	66	
Cn1ncc2c(N)nc3cc(F)c(C(=O)N(Cc4ccc(C(F)(F)F)cn4)NC(=O)OC4CCC4)cc3c21 [Example 331, cyclobutyl 2-(4-amino-7-fluoro-1-methyl-1H-pyrazolo[4,3-c]quinoline-8-carbonyl)-2-((5-(trifluoromethyl)pyridin-2-yl)methyl)hydrazine-1-carboxylate]	< 100 nM	< 1 nM	37	
Cn1ncc2c(N)nc3ccc(C(=O)N(Cc4ccc(C(F)(F)F)cn4)N4C(=O)[C@H]5CC[C@@H]4C5)cc3c21 [Example 11, 4-amino-1-methyl-N-[(1R,4S)-3-oxo-2-azabicyclo[2.2.1]heptan-2-yl]-N-[[5-(trifluoromethyl)-2-pyridyl]methyl]pyrazolo[4,3-c]quinoline-8-carboxamide]	< 100 nM	< 1 nM	245	
CN(C(=O)OC1CCC1)N(Cc1ccc(C(F)(F)F)cn1)C(=O)c1ccc2nc(N)c3cnn(C)c3c2c1 [Example 112, cyclobutyl N-[(4-amino-1-methyl-pyrazolo[4,3-c]quinoline-8-carbonyl)-[[5-(trifluoromethyl)-2-pyridyl]methyl]amino]-N-methyl-carbamate]	< 100 nM	< 1 nM	46	
CC(=O)N(C)N(Cc1ccc(C2CC2)nc1)C(=O)c1ccc2nc(N)c3cnn(C)c3c2c1 [Example 232, N′-acetyl-4-amino-N-((6-cyclopropylpyridin-3-yl)methyl)-N′,1-dimethyl-1H-pyrazolo[4,3-c]quinoline-8-carbohydrazide]	< 100 nM	1 to 5 nM	298	
CN(C(=O)[C@@H]1CCO1)N(Cc1ccc(C(F)(F)F)cc1F)C(=O)c1ccc2nc(N)c3cnn(C)c3c2c1 [Example 198, 4-amino-N-[[2-fluoro-4-(trifluoromethyl)phenyl]methyl]-N′,1-dimethyl-N′-[(2S)-oxetane-2-carbonyl]pyrazolo[4,3-c]quinoline-8-carbohydrazide]	< 100 nM	< 1 nM	57	
COCCN(C)N(Cc1ccc(C(F)(F)F)cc1F)C(=O)c1cc2c(cc1F)nc(N)c1cnn(C)c12 [Example 395, 4-amino-7-fluoro-N-(2-fluoro-4-(trifluoromethyl)benzyl)-N′-(2-methoxyethyl)-N′,1-dimethyl-1H-pyrazolo[4,3-c]quinoline-8-carbohydrazide]	< 100 nM	1 to 5 nM	33	
CN(C1CC1)N(Cc1ccc(C(F)(F)F)cn1)C(=O)c1ccc2nc(N)c3cnn(C)c3c2c1 [Example 75, 4-amino-N′-cyclopropyl-N′,1-dimethyl-N-((5-(trifluoromethyl)pyridin-2-yl)methyl)-1H-pyrazolo[4,3-c]quinoline-8-carbohydrazide]	< 100 nM	< 1 nM	68	
Cn1ncc2c(N)nc3ccc(C(=O)N(Cc4ccc(C(F)(F)F)cn4)N4CCS(=O)(=O)CC4)cc3c21 [Example 138, 4-amino-N-(1,1-dioxo-1,4-thiazinan-4-yl)-1-methyl-N-[[5-(trifluoromethyl)-2-pyridyl]methyl]pyrazolo[4,3-c]quinoline-8-carboxamide]	> 1000 nM	> 5 nM	174	
Cn1ncc2c(N)nc3cc(F)c(C(=O)N(Cc4ccc(C(F)(F)F)nn4)N4CCCC4=O)cc3c21 [Example 60, 4-amino-7-fluoro-1-methyl-N-(2-oxopyrrolidin-1-yl)-N-((6-(trifluoromethyl)pyridazin-3-yl)methyl)-1H-pyrazolo[4,3-c]quinoline-8-carboxamide]	< 100 nM	1 to 5 nM	58	
CC(=O)N(C)N(Cc1cc2cc(C(F)(F)F)ccn2n1)C(=O)c1ccc2nc(N)c3cnn(C)c3c2c1 [Example 402, N′-acetyl-4-amino-N′,1-dimethyl-N-((5-(trifluoromethyl)pyrazolo[1,5-a]pyridin-2-yl)methyl)-1H-pyrazolo[4,3-c]quinoline-8-carbohydrazide]	< 100 nM	< 1 nM		311
CCN(C(C)=O)N(Cc1ccc(C(F)(F)F)cn1)C(=O)c1cc2c(cc1F)nc(N)c1cnn(C)c12 [Example 205, N′-acetyl-4-amino-N′-ethyl-7-fluoro-1-methyl-N-[[5-(trifluoromethyl)-2-pyridyl]methyl]pyrazolo[4,3-c]quinoline-8-carbohydrazide]	< 100 nM	< 1 nM	44	
CN(C(=O)C1(F)CC1)N(Cc1ccc(C(F)(F)F)cn1)C(=O)c1ccc2nc(N)c3cnn(C)c3c2c1 [Example 117, 4-amino-N′-(1-fluorocyclopropanecarbonyl)-N′,1-dimethyl-N-[[5-(trifluoromethyl)-2-pyridyl]methyl]pyrazolo[4,3-c]quinoline-8-carbohydrazide]	< 100 nM	< 1 nM	34	
CN(C(=O)c1cocn1)N(Cc1ccc(C(F)(F)F)cc1F)C(=O)c1ccc2nc(N)c3cnn(C)c3c2c1 [Example 166, N′-(4-amino-1-methyl-1H-pyrazolo[4,3-c]quinoline-8-carbonyl)-N′-(2-fluoro-4-(trifluoromethyl)benzyl)-N-methyloxazole-4-carbohydrazide]	< 100 nM	< 1 nM	21	
